Experiments:
[1] = system: MAP-induced hyperlocomotion in mice; assay: Inhibition of methamphetamine (MAP)-induced hyperlocomotion; assay type: in vivo; settings: male ICR mice; compound 10 mg/kg p.o. 60 min before MAP 2 mg/kg s.c.; counts 0-120 min after MAP; Welch's t-test; FIG. 1
Protocol: Male ICR mice were supplied by CLEA Japan, Inc (Japan). After arrival to the vivarium, animals were allowed a minimum of 1 week for acclimation. They were housed under a 12:12-h light/dark cycle in a temperature- and humidity-controlled laboratory and allowed food and water ad libitum.
A test compound was suspended in 0.5% methylcellulose in distilled water and orally administered (p.o.). Methamphetamine (Dainippon Sumitomo Pharma Co., Ltd.) was dissolved in saline and subcutaneously administered (s.c.). All drugs were dosed in a volume of 10 mL/kg body weight for mice.
The widely used animal models of psychosis have been the measurement of the extent of hyperlocomotion induced by psychostimulants (e.g., amphetamine, cocaine, methamphetamine, MK-801 and phencyclidine) in rodents (Psychopharmacology 1999, vol. 145: 237-250). 2 compounds (A and B) were tested for its ability to antagonize MAP-induced hyperlocomotion in mice. Male ICR mice were habituated in the locomotor chambers with infrared sensors (BrainScienceIdea Co., Ltd. Japan) to the experiment. […] Locomotion activities were measured, and accumulated counts (120 min after administration of MAP) were calculated in each treatment group. All data were represented as means plus the standard errors of the means (n=3-8) and analyzed using Welch's t-test with significance set at ^$P<0.05, ^$$P<0.01 and ^$$$P<0.001. […]

[2] = system: methamphetamine (MAP)-induced hyperlocomotion; assay: methamphetamine (MAP)-induced hyperlocomotion; assay type: in vivo; settings: FIG. 1
[3] = biological target: T1, AMPA receptor (human GluR1 flip/stargazin expressed in CHO-K1 cells) (Homo sapiens, UniProt P42261); assay: AMPA receptor function enhancing activity using calcium influx as index; assay type: cell-based; settings: change in fluorescence level in 3 min, 100% = 3 mM glutamic acid + 300 μM cyclothiazide, 0% = 3 mM glutamic acid only
T1 construct: expressed in transfected cells; host or cells: CHO-K1
Summary of the method: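 CHO-K1 cells co-expressing human GluR1 flip and stargazin, Calcium 4 dye with 1.25 mM probenecid; compound added with glutamate (3 mM final), fluorescence change over 3 min. Activity (%) scaled between 3 mM glutamate alone (0%) and glutamate plus 300 μM cyclothiazide (100%).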

T1 sequence (P42261 19-906 isoform P42261-2 limits assumed): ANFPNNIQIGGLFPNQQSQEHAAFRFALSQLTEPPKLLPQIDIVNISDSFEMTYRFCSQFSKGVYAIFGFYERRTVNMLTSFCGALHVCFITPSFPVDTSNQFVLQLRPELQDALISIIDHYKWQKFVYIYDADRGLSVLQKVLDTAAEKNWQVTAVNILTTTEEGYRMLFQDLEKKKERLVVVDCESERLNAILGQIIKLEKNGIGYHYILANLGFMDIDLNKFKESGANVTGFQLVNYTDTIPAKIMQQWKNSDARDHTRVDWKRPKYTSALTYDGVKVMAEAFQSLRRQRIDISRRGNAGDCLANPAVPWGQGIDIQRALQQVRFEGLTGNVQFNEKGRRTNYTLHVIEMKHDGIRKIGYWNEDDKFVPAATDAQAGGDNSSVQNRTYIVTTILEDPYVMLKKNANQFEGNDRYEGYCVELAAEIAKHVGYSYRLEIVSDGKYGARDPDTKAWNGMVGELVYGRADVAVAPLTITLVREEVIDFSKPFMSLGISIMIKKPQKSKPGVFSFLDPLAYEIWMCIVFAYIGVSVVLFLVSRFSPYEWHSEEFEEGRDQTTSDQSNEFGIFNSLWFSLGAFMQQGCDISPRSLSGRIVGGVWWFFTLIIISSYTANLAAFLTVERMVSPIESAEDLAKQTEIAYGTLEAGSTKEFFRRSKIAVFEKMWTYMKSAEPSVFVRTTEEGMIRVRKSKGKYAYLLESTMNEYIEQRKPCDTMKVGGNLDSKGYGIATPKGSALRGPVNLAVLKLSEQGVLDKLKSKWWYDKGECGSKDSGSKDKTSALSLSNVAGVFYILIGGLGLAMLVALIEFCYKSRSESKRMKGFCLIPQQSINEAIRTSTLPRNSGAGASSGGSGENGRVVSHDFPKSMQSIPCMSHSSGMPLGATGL
T1 sequence (Q9Y698 whole entry partner): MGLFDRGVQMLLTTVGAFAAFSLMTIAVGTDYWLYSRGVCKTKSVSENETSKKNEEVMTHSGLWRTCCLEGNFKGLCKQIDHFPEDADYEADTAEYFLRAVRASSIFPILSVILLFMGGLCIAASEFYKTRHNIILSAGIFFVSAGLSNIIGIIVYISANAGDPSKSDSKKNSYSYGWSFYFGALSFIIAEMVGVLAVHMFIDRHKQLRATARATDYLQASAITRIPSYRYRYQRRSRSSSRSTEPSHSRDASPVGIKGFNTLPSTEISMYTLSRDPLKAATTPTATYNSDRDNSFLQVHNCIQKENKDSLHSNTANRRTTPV

Compound | inhibition of MAP-induced hyperlocomotion (accumulated locomotion counts) [1] | inhibition of methamphetamine (MAP)-induced hyperlocomotion [2] | activity (%) [3] [%]
CS(=O)(=O)N[C@H]1CCOC[C@@H]1COc1ccc(-n2cc(Cl)cn2)cc1 [compound A, N-[(3R,4S)-3-{[4-(4-chloro-1H-pyrazol-1-yl)phenoxy]methyl}tetrahydro-2H-pyran-4-yl]methanesulfonamide] | significant inhibition | inhibition | –
CCS(=O)(=O)N[C@H]1CCOC[C@@H]1COc1ccc(-n2cc(Cl)cn2)cc1F [compound B, N-[(3R,4S)-3-{[4-(4-chloro-1H-pyrazol-1-yl)-2-fluorophenoxy]methyl}tetrahydro-2H-pyran-4-yl]ethanesulfonamide] | significant inhibition | inhibition | –
CCS(=O)(=O)N[C@H]1CCCC[C@@H]1COc1ccc(C(C)C)cc1 (relative stereo) [Example 8, trans-N-[2-{[4-(1-methylethyl)phenoxy]methyl}cyclohexyl]ethanesulfonamide] | – | – | 79
CCS(=O)(=O)N[C@H]1CCOC[C@@H]1COc1ccc(-n2cc(C)cn2)cc1 (relative stereo) [Example 134, trans-N-[3-{[4-(4-methyl-1H-pyrazol-1-yl)phenoxy]methyl}tetrahydro-2H-pyran-4-yl]ethanesulfonamide] | – | – | 92
